Data reported in PMC8009520, “Exploration of TRPM8 Binding Sites by β-Carboline-Based Antagonists and Their In Vitro Characterization and In Vivo Analgesic Activities” (Journal of Medicinal Chemistry, 2020).
Where “and” joins values, the source holds several entries; their conditions need not be identical. Identical values can stand only once. Like-named read-outs stand apart in the source and are kept apart here.

How the values were obtained:
hNav1.7 = biological target: T1, hNav1.7 (Homo sapiens, UniProt Q15858); experiment: Selectivity fluorimetric assay, HEK-293 cells; assay type: cell-based; settings: veratridine as reference agonist
T1 construct: expressed in transfected cells; host or cells: HEK-293, stably transfected

[1] = In vitro metabolic stability using liver microsomes; assay type: in vitro ADME, human
Description: Compound 4 was used as reference, considering that its main pitfall was represented by metabolic instability that the newly synthesized compounds were aimed in overcoming. […] Each sample (2.5 mM) was incubated with 100 mM phosphate buffer (pH 7.4) and 20 mg/mL of liver microsomes (Thermo Fisher Scientific, Bremen, Germany). After preincubation in water bath for 5 min, the mixture was incubated with 20 mM NADPH (protocol I) at 37 °C for 60 min in a Thermomixer comfort (Eppendorf, Hamburg, Germany). For the measurement of UGT activity the microsomes were preincubated with alamethicin, which forms pores in microsomal membranes, promoting access of substrate and cofactor to UGT enzymes. Subsequently, each sample was incubated with 100 mM phosphate buffer, 500 mM magnesium chloride, 10 mM NADPH, and 20 mM UDP-GlcUA at 37 °C for 60 min. Finally, the reactions from both protocols (protocols I and II) were stopped by the addition of 200 μL of ice-cold methanol, and then samples were centrifuged at 10 000 rpm at 25 °C for 5 min (Eppendorf microcentrifuge 5424, Hamburg, Germany). The supernatants were collected and injected in UHPLC-PDA. The control at 0 min was obtained by addition of the organic solvent immediately after incubation with microsomes. […] The extent of metabolism is expressed as a percentage of the parent compound turnover using the following equation, as previously described:[43] […]

[2] = biological target: T2, rat isoform of TRPM8 channels (Rattus norvegicus, UniProt Q8R455); experiment: Ca2+ fluorimetric assay, menthol-activated channel; assay type: cell-based
T2 construct: expressed in transfected cells
Description: TRPM8 blocker activity of all synthesized compounds was tested by Ca^2+ fluorimetric assays using HEK-293 cells stably expressing the rat isoform of TRPM8 channels, using menthol and AMTB as prototypical agonist and antagonist, respectively.
For measurement of the potency of the compounds, fluorimetric experiments were performed using HEK-293 cells (CRL-1573TM, American Type Culture Collection, LGC Promochem, Molsheim, France) that stably express rat TRPM8. The cells were seeded in 96-well plates (Corning Incorporated, Corning, NY) at a cell density of 40 000 cells 2 days before treatment. On the day of treatment, the medium was replaced with 100 μL of the dye loading solution Fluo-4 NW supplemented with probenecid 2.5 mM.
The tested molecules dissolved in DMSO were added at the desired concentrations, and the plates were incubated in darkness at 37 °C in a humidified atmosphere of 5% CO2 for 60 min. The fluorescence was measured using instrument settings appropriate for excitation at 485 nm and emission at 535 nm (POLARstar Omega BMG LABtech). A baseline recording of four cycles was recorded prior to stimulation with the agonist (100 μM menthol for TRPM8). The TRPM8 antagonist, 10 μM AMTB, was added to the medium containing the corresponding agonist to induce channel blockade. The changes in fluorescence intensity were recorded during 15 cycles more. The higher concentration of DMSO used in the experiment was added to the control wells. The cells’ fluorescence was measured before and after the addition of various concentrations of test compounds. The fluorescence values obtained are normalized to that prompted by the corresponding agonist (for channel activating compounds) or upon agonist and antagonist coexposure (for channel blocker compounds).

hTRPV1 = biological target: T3, hTRPV1 (Homo sapiens, UniProt Q8NER1); experiment: Selectivity fluorimetric assay, CHO-K1 cells; assay type: cell-based; settings: capsaicine as reference agonist
T3 construct: expressed in transfected cells; host or cells: CHO-K1, stably transfected

hTRPA1 = biological target: T4, hTRPA1 (Homo sapiens, UniProt O75762); experiment: Selectivity fluorimetric assay, HEK-293 cells; assay type: cell-based; settings: AITC as reference agonist
T4 construct: expressed in transfected cells; host or cells: HEK-293, stably transfected

human TRPM8 [3] = biological target: T5, human TRPM8 (Homo sapiens, UniProt Q7Z2W7); experiment: cell-based; settings: HEK293, read-out: % Inhibition 300 μM menthol-evoked currents at 300 nM compounds, HEK-293 cells expressing human TRPM8, compound 300 nM
human TRPM8 [4] = biological target: T5, human TRPM8; settings: HEK-293 cells expressing human TRPM8, compound 300 nM
Swiss CD1 mice = experiment: CCI neuropathic pain model, thermal gradient ring; assay type: in vivo
Source text: Further we investigated the efficacy of 31a in a chronic constriction injury (CCI) model of neuropathic pain, using a thermal gradient ring assay. This assay deeply differs from the canonical reflexive measures of nociception, in which the end point is withdrawal to a noxious stimulus, a fact that has been questioned during the past years for their unsatisfactory translation.[34] In particular, this test integrates information on temperature perception distinguishing exploratory behavior from thermal preference behavior.[35a]
The mean temperature to which the sham animal located during the observation time was 27.9 °C ± 0.35 °C (Figure 7A), and no statistical differences were evidenced at the different time points (Figure 7B). […] It is questionable why this transient effect was recorded, but it must be considered that TRPM8 antagonists are able to decrease the body temperature.
Neuropathic pain behavior was induced by ligation of the sciatic nerve as described previously.[27d] […] Drug effects were evaluated 7 and 14 days after ligation.
We utilized the thermal gradient ring from Ugo-Basile previously using a modified protocol from Touska et al., 2016.[35] […] On day 2, mice were injected and 30 min after were placed in the apparatus and measured for 60 min using 15–40 °C. […]

C57/BL6 mice = experiment: Oxaliplatin-induced cold allodynia, acetone drop method; assay type: in vivo
Description: This effect was still evident 30 min after administration of a 30 μg dose (Figure 6).
Data are given as the mean ± SEM n = 6. Statistical analysis was two-way ANOVA followed by post hoc Bonferroni test by multiple comparison: ***p < 0.001, ****p < 0.0001.
For the oxaliplatin-induced neuropathic pain assay, oxaliplatin (Tocris) was dissolved in water with gentle warming and was subcutaneously (sc) injected on days 1, 3, and 5 at a 6 mg/kg dose. The day 7 after administration, experiments were performed. Together with oxaliplatin injection, saline and a 5% mannitol solution were intraperitoneally injected to prevent kidney damage and dehydration. 31a stock was prepared in DMSO (Sigma-Aldrich) and diluted in saline for injections.
Cold chemical thermal sensitivity was assessed using acetone drop method.[18b] Mice were placed in a metal mesh cage and allowed to habituate for approximately 30 min in order to acclimatize them. Freshly dispensed acetone drop (10 μL) was applied gently onto the mid-plantar surface of the hind paw. Cold chemical sensitive reaction with respect to paw licking was recorded as a positive response (nociceptive pain response). The responses were measured for 20 s with a digital stopwatch. For each measurement, the paw was sampled twice and the mean was calculated. The interval between each application of acetone was approximately 5 min.

[5] = Time-course cis to trans epimerization stability (HPLC); assay type: physicochemical; settings: during patch-clamp electrophysiology assays
Description: In this case, a different chemical approach is required because of the minor reactivity of anilines. Intermediates THBC 32a and 32b were coupled with 3CF3 or 2F or 4-F-phenyl isocyanate in basic medium of TEA. […] Absolute configuration was determined as described above. The formation of the cis intermediates, which was not observed with the N-benzyl or N-alkyl analogs, can be explained by the increased stability of the kinetic control species due to the higher rigidity of this structure. […] In addition, the corresponding C-11a epimers 36a′–38a′ could be obtained directly by reaction of 32b with the corresponding isocyanates and TEA at 60 °C for 30 min in 39–45% yields.
Figure S1: Time-course trans (36a’-38a’) / cis (36b-38b) HPLC peak area ratio in physiological
buffer (PBS, panel A) and methanol (Panel B).

TRPM8 = system: TRPM8; set-up: method as in PMID 26847872, PMID 25125580; settings: patch-clamp recordings; 18b; cited from earlier work
[6] = HEK-293 cells stably expressing rat TRPM8, menthol as agonist, mean ± SD of at least three measurements, read-out: IC50
[7] = Table 2, Ca2+ fluorimetric assay, read-out: IC50 Ca2+

T4 sequence (O75762 whole entry): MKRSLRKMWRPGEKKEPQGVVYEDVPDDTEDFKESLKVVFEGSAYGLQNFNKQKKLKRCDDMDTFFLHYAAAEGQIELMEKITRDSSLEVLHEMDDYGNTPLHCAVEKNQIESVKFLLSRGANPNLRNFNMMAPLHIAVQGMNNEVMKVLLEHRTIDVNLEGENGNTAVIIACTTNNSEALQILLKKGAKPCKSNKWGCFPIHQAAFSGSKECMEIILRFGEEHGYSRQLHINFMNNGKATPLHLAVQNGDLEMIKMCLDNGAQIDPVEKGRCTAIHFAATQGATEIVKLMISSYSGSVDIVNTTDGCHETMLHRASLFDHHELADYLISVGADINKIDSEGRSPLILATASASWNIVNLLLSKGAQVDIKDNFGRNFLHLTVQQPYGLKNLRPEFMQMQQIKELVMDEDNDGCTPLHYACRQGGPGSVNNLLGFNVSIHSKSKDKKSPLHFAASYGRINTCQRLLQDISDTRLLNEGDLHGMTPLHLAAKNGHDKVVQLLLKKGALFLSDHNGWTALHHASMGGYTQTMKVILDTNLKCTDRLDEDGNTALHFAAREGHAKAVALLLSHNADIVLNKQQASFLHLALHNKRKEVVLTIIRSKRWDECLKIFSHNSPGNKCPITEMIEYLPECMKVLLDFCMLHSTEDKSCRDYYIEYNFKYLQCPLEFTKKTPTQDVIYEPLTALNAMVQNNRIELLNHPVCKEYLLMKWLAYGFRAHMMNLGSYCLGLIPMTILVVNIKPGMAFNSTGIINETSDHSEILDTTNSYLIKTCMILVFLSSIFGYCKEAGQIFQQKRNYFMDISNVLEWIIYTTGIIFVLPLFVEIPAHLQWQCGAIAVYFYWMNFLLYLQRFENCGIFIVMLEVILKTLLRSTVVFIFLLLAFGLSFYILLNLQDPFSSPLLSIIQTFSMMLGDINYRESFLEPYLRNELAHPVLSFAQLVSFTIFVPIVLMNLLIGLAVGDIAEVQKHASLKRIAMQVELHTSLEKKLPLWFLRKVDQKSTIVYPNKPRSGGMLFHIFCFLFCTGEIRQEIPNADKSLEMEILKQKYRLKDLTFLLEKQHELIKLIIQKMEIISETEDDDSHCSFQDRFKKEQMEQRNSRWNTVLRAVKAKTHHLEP
T1 sequence (Q15858 whole entry): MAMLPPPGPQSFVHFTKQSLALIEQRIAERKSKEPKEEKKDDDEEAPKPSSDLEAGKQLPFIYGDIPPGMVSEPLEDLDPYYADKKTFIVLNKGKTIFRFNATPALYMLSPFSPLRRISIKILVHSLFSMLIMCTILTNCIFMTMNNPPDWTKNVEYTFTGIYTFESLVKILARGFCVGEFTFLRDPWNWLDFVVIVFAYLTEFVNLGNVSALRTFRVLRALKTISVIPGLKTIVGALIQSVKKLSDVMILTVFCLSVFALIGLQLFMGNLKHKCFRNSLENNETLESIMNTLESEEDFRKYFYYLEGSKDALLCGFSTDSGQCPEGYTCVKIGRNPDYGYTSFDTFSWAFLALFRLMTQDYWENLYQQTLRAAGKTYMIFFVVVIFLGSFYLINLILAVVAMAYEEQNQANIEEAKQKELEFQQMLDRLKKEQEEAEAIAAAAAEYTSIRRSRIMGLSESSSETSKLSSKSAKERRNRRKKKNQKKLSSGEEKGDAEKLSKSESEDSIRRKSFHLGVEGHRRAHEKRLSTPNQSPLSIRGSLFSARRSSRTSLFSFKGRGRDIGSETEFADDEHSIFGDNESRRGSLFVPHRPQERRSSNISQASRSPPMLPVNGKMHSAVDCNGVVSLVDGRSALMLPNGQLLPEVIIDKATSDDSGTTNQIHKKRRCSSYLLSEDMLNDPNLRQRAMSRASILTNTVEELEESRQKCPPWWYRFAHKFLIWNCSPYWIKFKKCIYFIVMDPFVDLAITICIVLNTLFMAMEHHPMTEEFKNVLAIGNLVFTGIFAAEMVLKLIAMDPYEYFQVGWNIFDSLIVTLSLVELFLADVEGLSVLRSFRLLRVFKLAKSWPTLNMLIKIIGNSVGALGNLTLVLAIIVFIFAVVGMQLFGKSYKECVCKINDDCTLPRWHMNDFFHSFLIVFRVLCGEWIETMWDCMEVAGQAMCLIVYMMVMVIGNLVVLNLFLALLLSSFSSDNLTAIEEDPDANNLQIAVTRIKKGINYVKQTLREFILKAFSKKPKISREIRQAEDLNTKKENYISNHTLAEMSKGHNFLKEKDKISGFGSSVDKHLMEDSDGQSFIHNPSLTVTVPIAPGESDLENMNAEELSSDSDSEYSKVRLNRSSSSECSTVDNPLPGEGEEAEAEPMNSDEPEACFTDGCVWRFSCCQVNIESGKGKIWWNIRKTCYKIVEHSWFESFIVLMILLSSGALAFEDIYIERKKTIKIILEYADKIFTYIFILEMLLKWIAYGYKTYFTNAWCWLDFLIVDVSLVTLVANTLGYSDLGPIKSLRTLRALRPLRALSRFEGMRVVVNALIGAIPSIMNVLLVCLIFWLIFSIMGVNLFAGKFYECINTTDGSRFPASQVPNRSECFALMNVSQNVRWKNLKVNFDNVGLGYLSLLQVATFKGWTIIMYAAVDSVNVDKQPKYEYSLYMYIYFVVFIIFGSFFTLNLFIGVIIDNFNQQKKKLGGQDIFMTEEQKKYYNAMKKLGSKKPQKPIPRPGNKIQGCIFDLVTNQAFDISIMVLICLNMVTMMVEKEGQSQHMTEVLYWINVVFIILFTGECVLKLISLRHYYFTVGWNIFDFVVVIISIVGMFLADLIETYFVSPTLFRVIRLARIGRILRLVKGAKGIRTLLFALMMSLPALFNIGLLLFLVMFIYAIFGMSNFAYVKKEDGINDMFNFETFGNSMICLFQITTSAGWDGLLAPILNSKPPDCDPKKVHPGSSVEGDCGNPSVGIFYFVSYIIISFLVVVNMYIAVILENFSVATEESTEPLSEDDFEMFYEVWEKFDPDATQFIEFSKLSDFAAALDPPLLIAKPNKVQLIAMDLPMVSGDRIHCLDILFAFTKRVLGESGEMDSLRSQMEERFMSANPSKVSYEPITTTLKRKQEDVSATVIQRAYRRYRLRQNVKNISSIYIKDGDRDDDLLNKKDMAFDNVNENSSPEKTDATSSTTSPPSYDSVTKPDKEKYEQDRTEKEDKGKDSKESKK
T2 sequence (Q8R455 whole entry, canonical isoform): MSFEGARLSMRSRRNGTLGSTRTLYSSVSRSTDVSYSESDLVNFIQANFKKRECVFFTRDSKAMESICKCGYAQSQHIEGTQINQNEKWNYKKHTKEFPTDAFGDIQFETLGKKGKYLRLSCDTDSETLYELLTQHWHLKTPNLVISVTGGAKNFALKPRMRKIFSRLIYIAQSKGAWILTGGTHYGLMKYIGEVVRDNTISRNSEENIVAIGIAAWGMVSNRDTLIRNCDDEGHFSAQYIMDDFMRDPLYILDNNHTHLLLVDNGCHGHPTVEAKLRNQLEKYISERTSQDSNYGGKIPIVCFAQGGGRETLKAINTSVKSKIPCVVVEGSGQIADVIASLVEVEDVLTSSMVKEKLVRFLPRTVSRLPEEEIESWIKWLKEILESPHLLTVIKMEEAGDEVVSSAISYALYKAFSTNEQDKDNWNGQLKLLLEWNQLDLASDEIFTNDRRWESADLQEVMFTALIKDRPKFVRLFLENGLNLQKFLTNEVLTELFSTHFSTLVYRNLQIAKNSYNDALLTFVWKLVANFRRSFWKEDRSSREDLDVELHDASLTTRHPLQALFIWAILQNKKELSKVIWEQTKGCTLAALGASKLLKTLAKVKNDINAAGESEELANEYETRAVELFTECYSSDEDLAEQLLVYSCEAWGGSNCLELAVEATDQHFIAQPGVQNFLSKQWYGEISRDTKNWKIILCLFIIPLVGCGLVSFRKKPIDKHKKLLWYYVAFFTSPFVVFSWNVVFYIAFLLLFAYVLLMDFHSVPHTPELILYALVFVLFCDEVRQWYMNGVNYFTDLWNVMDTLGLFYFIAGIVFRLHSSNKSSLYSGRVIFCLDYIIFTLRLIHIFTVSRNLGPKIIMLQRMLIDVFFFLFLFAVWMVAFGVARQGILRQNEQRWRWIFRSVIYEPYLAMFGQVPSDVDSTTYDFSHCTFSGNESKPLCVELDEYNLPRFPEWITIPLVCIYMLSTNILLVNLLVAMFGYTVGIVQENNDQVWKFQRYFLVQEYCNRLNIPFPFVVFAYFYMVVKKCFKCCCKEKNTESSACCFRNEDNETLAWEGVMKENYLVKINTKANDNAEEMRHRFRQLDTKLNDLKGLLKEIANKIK
T3 sequence (Q8NER1 whole entry): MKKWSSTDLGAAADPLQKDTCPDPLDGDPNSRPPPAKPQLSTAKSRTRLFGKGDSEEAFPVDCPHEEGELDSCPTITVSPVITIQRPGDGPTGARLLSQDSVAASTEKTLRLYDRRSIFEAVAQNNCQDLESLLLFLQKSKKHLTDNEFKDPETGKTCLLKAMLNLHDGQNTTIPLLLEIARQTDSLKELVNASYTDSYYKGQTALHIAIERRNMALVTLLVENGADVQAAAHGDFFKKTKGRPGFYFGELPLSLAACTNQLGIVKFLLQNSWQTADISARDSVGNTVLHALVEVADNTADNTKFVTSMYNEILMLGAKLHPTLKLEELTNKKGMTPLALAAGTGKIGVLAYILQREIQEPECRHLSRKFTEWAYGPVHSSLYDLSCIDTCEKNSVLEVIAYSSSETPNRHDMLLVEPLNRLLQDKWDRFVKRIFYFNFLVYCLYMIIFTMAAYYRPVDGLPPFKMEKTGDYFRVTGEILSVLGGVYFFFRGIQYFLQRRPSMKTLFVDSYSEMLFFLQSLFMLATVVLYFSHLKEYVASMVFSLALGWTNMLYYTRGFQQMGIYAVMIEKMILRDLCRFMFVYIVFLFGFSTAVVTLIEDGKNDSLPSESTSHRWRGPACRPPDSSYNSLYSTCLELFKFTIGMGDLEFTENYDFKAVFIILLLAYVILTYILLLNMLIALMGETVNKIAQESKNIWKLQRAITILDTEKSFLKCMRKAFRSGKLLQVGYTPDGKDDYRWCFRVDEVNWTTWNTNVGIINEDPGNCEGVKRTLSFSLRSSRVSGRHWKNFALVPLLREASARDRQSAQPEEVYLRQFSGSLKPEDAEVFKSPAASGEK

SMILES: COC(=O)CC[C@H]1N[C@H](C(=O)NCc2ccc(F)cc2)Cc2c1[nH]c1ccccc21 [11a, Methyl 3-((1R,3S)-3-((4-Fluorobenzyl)carbamoyl)-2,3,4,9-tetrahydro-1H-pyrido[3,4-b]indol-1-yl)propanoate]
- activity as agonist or antagonist on Nav1.7 (hNav1.7): no activity as agonists or antagonists
- turnover in absence of metabolic cofactors ([1]; 60 min with liver microsomes, no NADPH or UDP-GlcUA/NADPH): 66.5 ± 3.8%
- IC50 [2, 6]: 0.8 µM and 1.1 µM
- IC50 [2, 7]: 1.1 ± 0.5 µM
- activity as agonist or antagonist on TRPV1 (hTRPV1): no activity as agonists or antagonists
- activity as agonist or antagonist on TRPA1 (hTRPA1): no activity as agonists or antagonists

SMILES: O=C(O)CC[C@H]1N[C@H](C(=O)NCc2ccc(F)cc2)Cc2c1[nH]c1ccccc21 [12a, 3-((1R,3S)-3-((4-Fluorobenzyl)carbamoyl)-2,3,4,9-tetrahydro-1H-pyrido[3,4-b]indol-1-yl)propanoic Acid]
- inhibition at 0.3 µM (human TRPM8 [3]): 34%
- IC50 [2, 6]: 5 ± 1.2 µM
- IC50 [2, 7]: 5 ± 1.2 µM
- % Inhibition 300 μM menthol-evoked currents at 300 nM compounds (human TRPM8 [4]): 34.1±9.6%

SMILES: O=C1[C@@H]2Cc3c([nH]c4ccccc34)[C@@H](c3ccc(Cl)cc3)N2C(=O)N1Cc1ccc(F)cc1 [31a, (5R,11aS)-5-(4-Chlorophenyl)-2-(4-fluorobenzyl)-5,6,11,11a-tetrahydro-1H-imidazo[1′,5′:1,6]pyrido[3,4-b]indole-1,3(2H)-dione]
- mean preferred temperature (Swiss CD1 mice; CCI mice 14 days after ligation, 11.5 mg/kg ip, gradient 15-40 °C): 33.30 °C
- effect on temperature preferences (Swiss CD1 mice; sham-mice): No effects
- activity as agonist or antagonist on Nav1.7 (hNav1.7): no activity as agonists or antagonists
- inhibition of OXP-induced cold allodynia (paw licking) (C57/BL6 mice; 1 μg sc, single administration): not effective
- inhibition of OXP-induced cold allodynia (paw licking) (C57/BL6 mice; 10 μg sc): remarkable inhibitory effect
- inhibition of OXP-induced cold allodynia (paw licking) (C57/BL6 mice; 30 μg sc): remarkable inhibitory effect
- inhibition of OXP-induced cold allodynia 30 min after administration (C57/BL6 mice; 30 μg sc, 30 min): still evident
- time of maximum inhibitory effect (C57/BL6 mice; 10 and 30 μg sc): 15 min
- metabolic turnover, phase I + phase II ([1]; protocol II, NADPH and UDP-GlcUA, 37 °C, 60 min): 46.0 ± 2.3%
- IC50 [2, 6]: 0.5 ± 0.3 µM
- IC50 [2, 7]: >30 µM
- rTRPM8 IC50 (calcium microfluorimetric assays) ([2]; supplementary xlsx): > 30 µM
- activity as agonist or antagonist on TRPV1 (hTRPV1): no activity as agonists or antagonists
- activity as agonist or antagonist on TRPA1 (hTRPA1): no activity as agonists or antagonists

SMILES: O=C1[C@@H]2Cc3c([nH]c4ccccc34)[C@H](c3ccc(F)cc3)N2C(=O)N1c1cccc(C(F)(F)F)c1 [36b, (5S,11aS)-5-(4-Fluorophenyl)-2-(3-(trifluoromethyl)phenyl)-5,6,11,11a-tetrahydro-1H-imidazo[1′,5′:1,6]pyrido[3,4-b]indole-1,3(2H)-dione]
- activity as agonist or antagonist on Nav1.7 (hNav1.7): no activity as agonists or antagonists
- IC50 [2, 6]: 0.2 ± 0.2 µM
- IC50 [2, 7]: 0.2 ± 0.2 µM
- IC50 ([2]; supplementary xlsx, read-out: rTRPM8 IC50 (calcium microfluorimetric assays)): 0.3 ± 0.4 µM
- activity as agonist or antagonist on TRPV1 (hTRPV1): no activity as agonists or antagonists
- percentage of epimerization [5]: negligible
- activity as agonist or antagonist on TRPA1 (hTRPA1): no activity as agonists or antagonists

SMILES: c1ccc(CN(CCc2c[nH]c3ccccc23)Cc2ccccc2)cc1 [compound 3]
- IC50 (TRPM8): 0.367 µM
